According to PMC9627624, “Molecular iodine-promoted oxidative cyclization for the synthesis of 1,3,4-thiadiazole-fused- [1,2,4]-thiadiazole incorporating 1,4-benzodioxine moiety as potent inhibitors of α-amylase and α-glucosidase: In vitro and in silico study” (Frontiers in Chemistry, 2022):

melting point [°C]	Structure (SMILES)
210 to 211	O=[N+]([O-])c1ccc(/N=c2\snc3sc(C4COc5ccccc5O4)nn23)cc1 (stereo not shown) [Compound 1]
201 to 202	Oc1ccc(/N=c2\snc3sc(C4COc5ccccc5O4)nn23)c(O)c1 (stereo not shown) [Compound 2]
200 to 201	Oc1cc(O)cc(/N=c2\snc3sc(C4COc5ccccc5O4)nn23)c1 (stereo not shown) [Compound 3]
201 to 202	Oc1ccc(/N=c2\snc3sc(C4COc5ccccc5O4)nn23)cc1O (stereo not shown) [Compound 5]
199 to 200	Oc1ccc(O)c(/N=c2\snc3sc(C4COc5ccccc5O4)nn23)c1 (stereo not shown) [Compound 6]
191 to 192	Oc1cccc(/N=c2\snc3sc(C4COc5ccccc5O4)nn23)c1 (stereo not shown) [Compound 7]
214 to 215	Oc1cc(O)c(/N=c2\snc3sc(C4COc5ccccc5O4)nn23)c(O)c1 (stereo not shown) [Compound 8]
206 to 207	CN(C)c1ccc(/N=c2\snc3sc(C4COc5ccccc5O4)nn23)cc1 (stereo not shown) [Compound 9]
209 to 210	O=[N+]([O-])c1ccccc1/N=c1\snc2sc(C3COc4ccccc4O3)nn12 (stereo not shown) [Compound 10]
204 to 205	Clc1ccc(/N=c2\snc3sc(C4COc5ccccc5O4)nn23)cc1 (stereo not shown) [Compound 13]
216 to 217	COC(=O)c1ccc(/N=c2\snc3sc(C4COc5ccccc5O4)nn23)cc1 (stereo not shown) [Compound 14]
188 to 189	Cc1ccccc1/N=c1\snc2sc(C3COc4ccccc4O3)nn12 (stereo not shown) [Compound 15]
187 to 188	Cc1ccc(/N=c2\snc3sc(C4COc5ccccc5O4)nn23)cc1 (stereo not shown) [Compound 16]
203 to 204	Clc1cccc(/N=c2\snc3sc(C4COc5ccccc5O4)nn23)c1 (stereo not shown) [Compound 17]
186 to 187	Cc1cccc(/N=c2\snc3sc(C4COc5ccccc5O4)nn23)c1 (stereo not shown) [Compound 19]
212 to 213	COc1ccc(/N=c2\snc3sc(C4COc5ccccc5O4)nn23)cc1O (stereo not shown) [Compound 20]
198 to 199	Oc1cccc(/N=c2\snc3sc(C4COc5ccccc5O4)nn23)c1O (stereo not shown) [Compound 22]
193 to 194	Fc1ccccc1/N=c1\snc2sc(C3COc4ccccc4O3)nn12 (stereo not shown) [Compound 23]
194 to 195	Fc1cccc(/N=c2\snc3sc(C4COc5ccccc5O4)nn23)c1 (stereo not shown) [Compound 24]
